Reference: patent publication US8124793B2, “Derivatives of ethylene methanedisulfonate as cancer chemotherapeutic agents” (priority 2007, dated 2012)

Columns and labels:
[1] = system: BT-549; experiment: NCI screen, growth of human tumor cells: Breast Cancer BT-549; type: cell-based
Summary of the method: (§1)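 Under the NCI protocol, every compound is profiled with sixty or more data points. Each point ties a cancer type and a molar screening concentration to a percent growth value.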

[2] = system: human cancer cells; experiment: NCI screen summary over the cancers tested (negative growth of human cancer cells); type: cell-based; conditions: cancers with negative growth / cancers tested
Experimental: (§2) In the NCI screening process, each compound was tested and described by a minimum of 60 data points. The test data include, but are not limited to the type of cancer, the molar concentration used in the screen, and the percent growth of the cancer. In some cases, NMR and elemental analysis were used for structural assignment.
The derivatives in the tables are grouped using the same category as in the tables 1-6.

[3] = system: CCRF-CEM; experiment: NCI screen, growth of human tumor cells: Leukemia CCRF-CEM; type: cell-based; conditions: CCRF-CEM (Leukemia), 10^−4 molar
Summary of the method: as §1

[4] = system: RPMI-8226; experiment: NCI screen, growth of human tumor cells: Leukemia RPMI-8226; type: cell-based; conditions: RPMI-8226 (Leukemia), 10^−4 molar
Summary of the method: as §1

[5] = system: SR; experiment: NCI screen, growth of human tumor cells: Leukemia SR; type: cell-based; conditions: SR (Leukemia), 10^−4 molar
Summary of the method: as §1

[6] = system: AS49/ATCC; experiment: NCI screen, growth of human tumor cells: Non-Small Cell Lung AS49/ATCC; type: cell-based; conditions: AS49/ATCC (Non-Small Cell Lung), 10^−4 molar
Experimental: as §2

[7] = system: HOP-62; experiment: NCI screen, growth of human tumor cells: Non-Small Cell Lung HOP-62; type: cell-based; conditions: HOP-62 (Non-Small Cell Lung), 10^−4 molar
Summary of the method: as §1

[8] = system: NCI-H226; experiment: NCI screen, growth of human tumor cells: Non-Small Cell Lung NCI-H226; type: cell-based; conditions: NCI-H226, 10^−4 molar
Summary of the method: as §1

[9] = system: NCI-H522; experiment: NCI screen, growth of human tumor cells: Non-Small Cell Lung NCI-H522; type: cell-based; conditions: NCI-H522, 10^−4 molar
Summary of the method: as §1

[10] = system: NCI-H322M; experiment: NCI screen, growth of human tumor cells: Non-Small Cell Lung NCI-H322M; type: cell-based; conditions: NCI-H322M (Non-Small Cell Lung), 10^−4 molar
Experimental: as §2

[11] = system: NCI-H23; experiment: NCI screen, growth of human tumor cells: Non-Small Cell Lung NCI-H23; type: cell-based; conditions: NCI-H23, 10^−4 molar
Summary of the method: as §1

[12] = system: COLO205; experiment: NCI screen, growth of human tumor cells: Colon Cancer COLO205; type: cell-based; conditions: COLO205, 10^−4 molar
Summary of the method: as §1

[13] = system: HCT-116; experiment: NCI screen, growth of human tumor cells: Colon Cancer HCT-116; type: cell-based; conditions: HCT-116 (Colon Cancer), 10^−4 molar
Summary of the method: as §1

[14] = system: HT29; experiment: NCI screen, growth of human tumor cells: Colon Cancer HT29; type: cell-based
Experimental: as §2

[15] = system: KM12; experiment: NCI screen, growth of human tumor cells: Colon Cancer KM12; type: cell-based; conditions: KM12 (Colon Cancer), 10^−4 molar
Summary of the method: as §1

[16] = system: SF-268; experiment: NCI screen, growth of human tumor cells: CNS Cancer SF-268; type: cell-based; conditions: SF-268 (CNS Cancer), 10^−4 molar
Summary of the method: as §1

[17] = system: SF-295; experiment: NCI screen, growth of human tumor cells: CNS Cancer SF-295; type: cell-based; conditions: SF-295, 10^−4 molar
Summary of the method: as §1

[18] = system: SF-539; experiment: NCI screen, growth of human tumor cells: CNS Cancer SF-539; type: cell-based; conditions: SF-539, 10^−4 molar
Summary of the method: as §1

[19] = system: U-251; experiment: NCI screen, growth of human tumor cells: CNS Cancer U-251; type: cell-based; conditions: U-251 (CNS Cancer), 10^−4 molar
Summary of the method: as §1

[20] = system: M14; experiment: NCI screen, growth of human tumor cells: Melanoma M14; type: cell-based; conditions: M14 (Melanoma), 10^−4 molar
Summary of the method: as §1

[21] = system: MALME-3M; experiment: NCI screen, growth of human tumor cells: Melanoma MALME-3M; type: cell-based; conditions: MALME-3M, 10^−4 molar
Experimental: as §2

[22] = system: SK-MEL-2; experiment: NCI screen, growth of human tumor cells: Melanoma SK-MEL-2; type: cell-based; conditions: SK-MEL-2 (Melanoma), 10^−4 molar
Experimental: as §2

[23] = system: SK-MEL-28; experiment: NCI screen, growth of human tumor cells: Melanoma SK-MEL-28; type: cell-based
Experimental: as §2

[24] = system: SK-MEL-5; experiment: NCI screen, growth of human tumor cells: Melanoma SK-MEL-5; type: cell-based; conditions: SK-MEL-5, 10^−4 molar
Summary of the method: as §1

[25] = system: UACC-257; experiment: NCI screen, growth of human tumor cells: Melanoma UACC-257; type: cell-based; conditions: UACC-257 (Melanoma), 10^−4 molar
Experimental: as §2

[26] = system: UACC-62; experiment: NCI screen, growth of human tumor cells: Melanoma UACC-62; type: cell-based; conditions: UACC-62, 10^−4 molar
Summary of the method: as §1

[27] = system: IGROVI; experiment: NCI screen, growth of human tumor cells: Ovarian Cancer IGROVI; type: cell-based; conditions: IGROVI (Ovarian Cancer), 10^−4 molar
Experimental: as §2

[28] = system: SK-OV-3; experiment: NCI screen, growth of human tumor cells: Ovarian Cancer SK-OV-3; type: cell-based; conditions: SK-OV-3 (Ovarian Cancer), 10^−4 molar
Experimental: as §2

[29] = system: OVCAR-3; experiment: NCI screen, growth of human tumor cells: Ovarian Cancer OVCAR-3; type: cell-based; conditions: OVCAR-3 (Ovarian Cancer), 10^−4 molar
Summary of the method: as §1

[30] = system: OVCAR-5; experiment: NCI screen, growth of human tumor cells: Ovarian Cancer OVCAR-5; type: cell-based; conditions: OVCAR-5, 10^−4 molar
Experimental: as §2

[31] = system: ACHN; experiment: NCI screen, growth of human tumor cells: Renal Cancer ACHN; type: cell-based; conditions: ACHN (Renal Cancer), 10^−4 molar
Summary of the method: as §1

[32] = system: RXF-393; experiment: NCI screen, growth of human tumor cells: Renal Cancer RXF-393; type: cell-based; conditions: RXF-393 (Renal Cancer), 10^−4 molar
Summary of the method: as §1

[33] = system: SN12C; experiment: NCI screen, growth of human tumor cells: Renal Cancer SN12C; type: cell-based; conditions: SN12C (Renal Cancer), 10^−4 molar
Summary of the method: as §1

[34] = system: DU-145; experiment: NCI screen, growth of human tumor cells: Prostate Cancer DU-145; type: cell-based; conditions: DV-145, 10^−4 molar
Summary of the method: as §1

[35] = system: MCF 7; experiment: NCI screen, growth of human tumor cells: Breast Cancer MCF 7; type: cell-based; conditions: MCF 7 (Breast Cancer), 10^−4 molar
Experimental: as §2

[36] = system: HS 578T; experiment: NCI screen, growth of human tumor cells: Breast Cancer HS 578T; type: cell-based; conditions: HS 578T (Breast Cancer), 10^−4 molar
Summary of the method: as §1

SMILES: O=S1(=O)OCCOS(=O)(=O)C1(F)Br [NSC 665943, ethylene fluorobromomethanedisulfonate]
- % Growth ([1]; BT-549, 10^−4 molar): 12%
- % Growth ([1]; BT-549, 10^−5 molar): 28%
- % Growth ([1]; BT-549, 10^−6 molar): 52%
- % Growth ([1]; BT-549, 10^−7 molar): 42%
- % Growth ([1]; BT-549, 10^−8 molar): 44%
- Percentage of cancers showing negative growth cancers tested ([2]; 10^−4 M conc.): 10^−4 M conc. = 0/1 = 0%
- melting point: 82 to 90 °C

SMILES: CC1=C(CC2(C(=O)C(F)(F)C(F)(F)C(F)(F)F)S(=O)(=O)OCCOS2(=O)=O)C(=O)c2ccccc2C1=O [NSC 720683, ethylene perfluorobutyril-(3-methyl-1,4-naphtho-2-quinoyl)-1,1-ethanedisulfonate]
- percent of growth of human tumor cells [3]: 5%
- percent of growth of human tumor cells [4]: 28%
- percent of growth of human tumor cells [5]: −22%
- percent of growth of human tumor cells [6]: −45%
- percent of growth of human tumor cells [7]: −28%
- % Growth [8]: −68%
- % Growth [9]: −68%
- percent of growth of human tumor cells [10]: 25%
- % Growth [11]: −75%
- % Growth [12]: −84%
- percent of growth of human tumor cells [13]: 22%
- % Growth ([14]; HT-29, 10^−4 molar): −100%
- % Growth ([14]; HT-29, 10^−5 molar): −37%
- % Growth ([14]; HT-29, 10^−6 molar): −6%
- % Growth ([14]; HT-29, 10^−7 molar): 23%
- percent of growth of human tumor cells [15]: 26%
- percent of growth of human tumor cells [16]: 1%
- % Growth [17]: −70%
- % Growth [18]: −67%
- percent of growth of human tumor cells [19]: 12%
- percent of growth of human tumor cells [20]: −56%
- % Growth [21]: −87%
- percent of growth of human tumor cells [22]: −57%
- % Growth ([23]; SK-MEL-28, 10^−4 molar): −85%
- % Growth ([23]; SK-MEL-28, 10^−5 molar): −55%
- % Growth ([23]; SK-MEL-28, 10^−6 molar): −31%
- % Growth ([23]; SK-MEL-28, 10^−7 molar): 31%
- % Growth ([23]; SK-MEL-28, 10^−8 molar): 74%
- % Growth [24]: −95%
- percent of growth of human tumor cells [25]: −18%
- % Growth [26]: −85%
- percent of growth of human tumor cells [27]: 27%
- percent of growth of human tumor cells [28]: 24%
- percent of growth of human tumor cells [29]: 30%
- % Growth [30]: −71%
- percent of growth of human tumor cells [31]: −27%
- percent of growth of human tumor cells [32]: 9%
- percent of growth of human tumor cells [33]: −37%
- % Growth [34]: −100%
- percent of growth of human tumor cells [35]: −24%
- percent of growth of human tumor cells ([1]; BT-549 (Breast Cancer), 10^−4 molar): −50%
- percent of growth of human tumor cells [36]: −14%
- Percentage of cancers showing negative growth cancers tested ([2]; 10^−5 M conc.): 100%
- Percentage of cancers showing negative growth cancers tested ([2]; 10^−6 M conc.): 100%
